Experimental findings from ChEMBL document CHEMBL1909046, “DrugMatrix in vitro pharmacology data” are described below.

Each structure is given as a SMILES string.

In the first test the target is T1, Neuropeptide Y receptor type 1 (Homo sapiens, UniProt P25929). Also: in other assays of this panel Not Active means under 50% inhibition at 10 µM.
T1 sequence (P25929 whole entry): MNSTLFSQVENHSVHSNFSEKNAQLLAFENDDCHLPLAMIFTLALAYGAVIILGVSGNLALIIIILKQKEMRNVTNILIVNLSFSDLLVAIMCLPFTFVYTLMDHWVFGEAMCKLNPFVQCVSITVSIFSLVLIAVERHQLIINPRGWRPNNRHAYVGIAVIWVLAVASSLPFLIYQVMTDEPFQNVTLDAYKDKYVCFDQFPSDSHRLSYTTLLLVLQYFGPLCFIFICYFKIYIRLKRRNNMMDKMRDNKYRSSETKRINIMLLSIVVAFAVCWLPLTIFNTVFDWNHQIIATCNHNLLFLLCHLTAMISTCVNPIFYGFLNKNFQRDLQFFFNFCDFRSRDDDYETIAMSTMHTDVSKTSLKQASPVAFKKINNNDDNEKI
Experiment: not given
Particulars: sk-n-mc. The class given is cell membranes, Membrane.
`Fc1ccc([C@@H]2CCNC[C@H]2COc2ccc3c(c2)OCO3)cc1` [PAROXETINE]: the IC50 result is recorded as “Not Active”.
Same read-out and setting: the value for `O=P1(NCCCl)OCCCN1CCCl` (configuration not stated) [IFOSFAMIDE] was “Not Active”.

Another test addresses cGMP-specific 3',5'-cyclic phosphodiesterase (Homo sapiens, UniProt O76074). The test can be described thus: DRUGMATRIX: Phosphodiesterase PDE5 enzyme inhibition (substrate: [3H]cGMP + cGMP). The class given is tissue-based, Platelet. Particulars: platelet; Not Active = under 50% inhibition at 10 µM.
In the case of `Fc1ccc([C@@H]2CCNC[C@H]2COc2ccc3c(c2)OCO3)cc1` [PAROXETINE], the IC50 entry is reported as “Not Active”.
Still for that read-out and setting: the value for `O=P1(NCCCl)OCCCN1CCCl` (configuration not stated) [IFOSFAMIDE] was “Not Active”.

System in a further test: not listed separately
The test can be described thus: DRUGMATRIX: ATPase, Na+/K+ enzyme inhibition (substrate: ATP). Format: tissue-based, Sus scrofa, Heart. Particulars: Not Active = under 50% inhibition at 10 µM.
Consider `Fc1ccc([C@@H]2CCNC[C@H]2COc2ccc3c(c2)OCO3)cc1` [PAROXETINE], for which the IC50 result is recorded as “Not Active” and the Ki entry is on record as “Not Active”.
On to `O=P1(NCCCl)OCCCN1CCCl` (configuration not stated) [IFOSFAMIDE], for which the IC50 entry was “Not Active” and the Ki entry is “Not Active”.

For another test, the target named is T2, Leukotriene C4 synthase (Cavia porcellus, UniProt A6XA80).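 Also: enzyme inhibition assay of leukotriene C4 synthase, using LTA4 as the substrate; in other assays of this panel Not Active means under 50% inhibition at 10 µM.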
T2 sequence (A6XA80 whole entry): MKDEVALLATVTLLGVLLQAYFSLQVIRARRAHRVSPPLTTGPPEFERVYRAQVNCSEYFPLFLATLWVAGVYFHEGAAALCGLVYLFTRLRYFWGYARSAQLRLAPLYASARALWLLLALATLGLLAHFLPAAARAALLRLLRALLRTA
The test can be described thus: biochemical. Format: tissue-based, Lung.
Settings: not given
Take `Fc1ccc([C@@H]2CCNC[C@H]2COc2ccc3c(c2)OCO3)cc1` [PAROXETINE]: the IC50 entry is given as “Not Active”.
On the same count and under the same terms, the value for `O=P1(NCCCl)OCCCN1CCCl` (configuration not stated) [IFOSFAMIDE] was “Not Active”.

The next test has as its target T3, Neutrophil elastase (Homo sapiens, UniProt P08246).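 Also: inhibition of neutrophil elastase enzyme activity, measured with a p-nitroanilide-linked peptide substrate; in other assays of this panel Not Active means under 50% inhibition at 10 µM.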
T3 sequence (P08246 whole entry): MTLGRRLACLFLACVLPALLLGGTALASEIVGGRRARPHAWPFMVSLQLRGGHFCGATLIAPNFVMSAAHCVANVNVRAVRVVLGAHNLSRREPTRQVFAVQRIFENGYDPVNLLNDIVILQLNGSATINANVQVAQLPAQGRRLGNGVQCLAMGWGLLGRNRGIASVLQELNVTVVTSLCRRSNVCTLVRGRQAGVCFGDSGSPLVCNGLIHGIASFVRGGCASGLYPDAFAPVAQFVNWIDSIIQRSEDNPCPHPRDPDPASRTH
Experiment: not given
The class given is tissue-based.
Settings: not given
`Fc1ccc([C@@H]2CCNC[C@H]2COc2ccc3c(c2)OCO3)cc1` [PAROXETINE]: the IC50 result is “Not Active”.
Same read-out and setting: for `O=P1(NCCCl)OCCCN1CCCl` (configuration not stated) [IFOSFAMIDE] the value was “Not Active”.

The next test deals with Insulin receptor (Rattus norvegicus, UniProt P15127).
Sequence of Insulin receptor (P15127 27-759 limits assumed): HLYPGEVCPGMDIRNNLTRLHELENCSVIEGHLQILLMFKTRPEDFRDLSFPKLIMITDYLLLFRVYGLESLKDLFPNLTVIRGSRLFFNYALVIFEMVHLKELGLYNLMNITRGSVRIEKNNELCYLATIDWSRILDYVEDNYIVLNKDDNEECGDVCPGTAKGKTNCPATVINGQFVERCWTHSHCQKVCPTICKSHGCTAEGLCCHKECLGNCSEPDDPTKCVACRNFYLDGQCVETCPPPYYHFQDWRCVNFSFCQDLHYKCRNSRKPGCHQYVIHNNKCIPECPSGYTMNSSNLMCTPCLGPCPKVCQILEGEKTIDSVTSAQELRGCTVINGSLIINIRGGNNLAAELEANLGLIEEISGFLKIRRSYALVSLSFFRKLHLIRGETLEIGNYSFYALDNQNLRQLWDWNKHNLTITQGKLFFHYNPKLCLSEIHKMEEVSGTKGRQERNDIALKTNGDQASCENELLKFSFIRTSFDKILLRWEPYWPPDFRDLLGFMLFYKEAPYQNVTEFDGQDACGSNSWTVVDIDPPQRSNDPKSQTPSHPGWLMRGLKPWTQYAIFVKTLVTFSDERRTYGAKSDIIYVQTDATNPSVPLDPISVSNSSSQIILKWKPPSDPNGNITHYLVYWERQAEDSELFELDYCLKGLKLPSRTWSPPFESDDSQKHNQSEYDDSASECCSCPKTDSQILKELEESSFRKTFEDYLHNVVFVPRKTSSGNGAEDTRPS
Sequence of Insulin receptor (P15127 764-1383 limits assumed): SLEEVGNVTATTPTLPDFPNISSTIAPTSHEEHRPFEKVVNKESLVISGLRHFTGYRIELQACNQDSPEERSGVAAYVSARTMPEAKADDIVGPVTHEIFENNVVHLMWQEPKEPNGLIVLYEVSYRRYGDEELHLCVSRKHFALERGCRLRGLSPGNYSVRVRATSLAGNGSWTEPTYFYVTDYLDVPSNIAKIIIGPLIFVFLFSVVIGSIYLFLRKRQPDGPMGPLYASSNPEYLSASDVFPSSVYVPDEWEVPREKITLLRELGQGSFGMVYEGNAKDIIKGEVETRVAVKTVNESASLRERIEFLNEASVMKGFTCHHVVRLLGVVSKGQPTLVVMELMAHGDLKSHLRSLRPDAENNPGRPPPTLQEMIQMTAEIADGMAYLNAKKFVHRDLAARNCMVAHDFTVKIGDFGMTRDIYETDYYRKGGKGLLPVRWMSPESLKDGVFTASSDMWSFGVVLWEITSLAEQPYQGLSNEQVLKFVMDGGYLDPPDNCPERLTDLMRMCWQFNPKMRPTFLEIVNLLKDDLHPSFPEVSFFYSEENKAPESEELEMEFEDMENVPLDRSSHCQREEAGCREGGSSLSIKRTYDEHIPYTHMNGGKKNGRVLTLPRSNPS
Experiment: not given
Settings: not given
The class given is cell membranes, Wistar, Liver, Membrane.
Take `Fc1ccc([C@@H]2CCNC[C@H]2COc2ccc3c(c2)OCO3)cc1` [PAROXETINE]: the IC50 result is on record as “Not Active”.
On the same count and under the same terms, for `O=P1(NCCCl)OCCCN1CCCl` (configuration not stated) [IFOSFAMIDE] the value was “Not Active”.

The target in the next test is T4, C-C chemokine receptor type 4 (Homo sapiens, UniProt P51679). Also: in other assays of this panel Not Active means under 50% inhibition at 10 µM.
T4 sequence (P51679 whole entry): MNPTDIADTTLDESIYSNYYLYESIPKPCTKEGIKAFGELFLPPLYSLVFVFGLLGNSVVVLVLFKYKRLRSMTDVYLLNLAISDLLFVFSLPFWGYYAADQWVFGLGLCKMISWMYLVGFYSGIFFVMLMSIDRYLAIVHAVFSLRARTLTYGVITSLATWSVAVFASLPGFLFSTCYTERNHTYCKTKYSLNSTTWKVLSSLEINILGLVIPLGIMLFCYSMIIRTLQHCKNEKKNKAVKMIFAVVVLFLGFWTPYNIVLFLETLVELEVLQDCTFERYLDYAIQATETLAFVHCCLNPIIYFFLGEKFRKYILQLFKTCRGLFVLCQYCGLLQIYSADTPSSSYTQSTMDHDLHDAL
Experiment: not given
The class given is cell membranes, Membrane. Particulars: chem-1.
Consider `Fc1ccc([C@@H]2CCNC[C@H]2COc2ccc3c(c2)OCO3)cc1` [PAROXETINE], for which the IC50 result was “Not Active”.
Same read-out and setting: the value for `O=P1(NCCCl)OCCCN1CCCl` (configuration not stated) [IFOSFAMIDE] was “Not Active”.

The target in the next test is T5, Nitric oxide synthase, inducible (Mus musculus, UniProt P29477).
T5 sequence (P29477 whole entry): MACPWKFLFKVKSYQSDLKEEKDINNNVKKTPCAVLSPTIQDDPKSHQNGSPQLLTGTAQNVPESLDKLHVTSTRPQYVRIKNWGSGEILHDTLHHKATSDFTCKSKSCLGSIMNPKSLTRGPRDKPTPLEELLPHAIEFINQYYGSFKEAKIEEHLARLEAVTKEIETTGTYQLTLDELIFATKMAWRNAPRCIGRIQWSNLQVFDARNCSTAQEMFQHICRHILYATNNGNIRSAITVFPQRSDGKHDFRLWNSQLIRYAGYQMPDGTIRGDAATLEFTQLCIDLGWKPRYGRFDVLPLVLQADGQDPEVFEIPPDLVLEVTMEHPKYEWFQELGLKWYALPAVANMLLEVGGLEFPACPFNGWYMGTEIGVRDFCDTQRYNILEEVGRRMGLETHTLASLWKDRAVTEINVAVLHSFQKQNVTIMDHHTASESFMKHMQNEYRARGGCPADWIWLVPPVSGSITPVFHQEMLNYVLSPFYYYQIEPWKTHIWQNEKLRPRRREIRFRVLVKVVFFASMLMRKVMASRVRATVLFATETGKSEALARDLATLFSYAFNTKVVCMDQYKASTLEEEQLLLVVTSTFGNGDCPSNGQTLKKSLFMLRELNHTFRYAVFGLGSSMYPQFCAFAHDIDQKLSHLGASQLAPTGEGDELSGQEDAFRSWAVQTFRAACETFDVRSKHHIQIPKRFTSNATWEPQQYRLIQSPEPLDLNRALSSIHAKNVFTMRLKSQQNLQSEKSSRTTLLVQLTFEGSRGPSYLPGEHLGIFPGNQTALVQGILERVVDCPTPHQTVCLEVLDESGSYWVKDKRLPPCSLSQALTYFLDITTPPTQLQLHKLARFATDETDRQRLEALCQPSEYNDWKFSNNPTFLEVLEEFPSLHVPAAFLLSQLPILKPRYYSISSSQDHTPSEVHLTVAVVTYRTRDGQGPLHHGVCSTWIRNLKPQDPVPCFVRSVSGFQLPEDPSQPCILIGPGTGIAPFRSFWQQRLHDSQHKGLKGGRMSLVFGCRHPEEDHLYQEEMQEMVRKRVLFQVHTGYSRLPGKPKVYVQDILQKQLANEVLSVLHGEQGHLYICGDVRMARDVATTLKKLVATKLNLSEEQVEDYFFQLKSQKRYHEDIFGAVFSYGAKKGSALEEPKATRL
Experiment: not given
Also on record: species or system Escherichia coli.
Settings: not given
For the molecule `Fc1ccc([C@@H]2CCNC[C@H]2COc2ccc3c(c2)OCO3)cc1` [PAROXETINE], the IC50 result is on record as “Not Active”.
Same read-out and setting: for `O=P1(NCCCl)OCCCN1CCCl` (configuration not stated) [IFOSFAMIDE] the value was “Not Active”.

System in a further test: not listed separately
The test can be described thus: DRUGMATRIX: Phorbol Ester radioligand binding (ligand: [3H] PDBu). Particulars: Not Active = under 50% inhibition at 10 µM. Format: cell membranes, Mus musculus, ICR, Brain, Membrane.
Turning to `Fc1ccc([C@@H]2CCNC[C@H]2COc2ccc3c(c2)OCO3)cc1` [PAROXETINE], the IC50 entry was “Not Active” and the Ki entry was “Not Active”.
Regarding `O=P1(NCCCl)OCCCN1CCCl` (configuration not stated) [IFOSFAMIDE], the IC50 result is on record as “Not Active” and the Ki result is reported as “Not Active”.

System in another test: not listed separately
The test can be described thus: DRUGMATRIX: Glutamate, Kainate radioligand binding (ligand: [3H] Kainic acid). Format: cell membranes, Rattus norvegicus, Wistar, Brain, Membrane. Particulars: Not Active = under 50% inhibition at 10 µM.
On to `Fc1ccc([C@@H]2CCNC[C@H]2COc2ccc3c(c2)OCO3)cc1` [PAROXETINE], for which the IC50 entry is on record as “Not Active” and the Ki entry was “Not Active”.
Consider `O=P1(NCCCl)OCCCN1CCCl` (configuration not stated) [IFOSFAMIDE], for which the IC50 entry is on record as “Not Active” and the Ki entry was “Not Active”.

System in another test: not listed separately
The test can be described thus: DRUGMATRIX: Glutamate, AMPA radioligand binding (ligand: [3H] AMPA). The class given is cell membranes, Rattus norvegicus, Wistar, Cerebral cortex, Membrane. Particulars: Not Active = under 50% inhibition at 10 µM.
In the case of `Fc1ccc([C@@H]2CCNC[C@H]2COc2ccc3c(c2)OCO3)cc1` [PAROXETINE], the IC50 entry was “Not Active” and the Ki entry is reported as “Not Active”.
In the case of `O=P1(NCCCl)OCCCN1CCCl` (configuration not stated) [IFOSFAMIDE], the IC50 result is “Not Active” and the Ki result is recorded as “Not Active”.

The next test deals with C-C chemokine receptor type 2 (Homo sapiens, UniProt P41597).
Sequence of C-C chemokine receptor type 2 (P41597 whole entry): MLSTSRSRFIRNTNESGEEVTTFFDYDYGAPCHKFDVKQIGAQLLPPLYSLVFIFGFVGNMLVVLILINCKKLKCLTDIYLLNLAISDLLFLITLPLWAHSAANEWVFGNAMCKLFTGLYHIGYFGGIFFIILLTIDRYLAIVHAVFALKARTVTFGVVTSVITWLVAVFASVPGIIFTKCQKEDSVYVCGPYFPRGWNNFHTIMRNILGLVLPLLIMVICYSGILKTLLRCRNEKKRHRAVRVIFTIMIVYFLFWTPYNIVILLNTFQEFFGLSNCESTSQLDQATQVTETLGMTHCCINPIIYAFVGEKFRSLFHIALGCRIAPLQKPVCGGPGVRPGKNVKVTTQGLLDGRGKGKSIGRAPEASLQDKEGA
Experiment: not given
Format: cell membranes, CHO-K1, Membrane. Particulars: cho-k1.
For `Fc1ccc([C@@H]2CCNC[C@H]2COc2ccc3c(c2)OCO3)cc1` [PAROXETINE], the IC50 entry is “Not Active”.
For `O=P1(NCCCl)OCCCN1CCCl` (configuration not stated) [IFOSFAMIDE], the IC50 entry is reported as “Not Active”.
